Results reported in US20160279154A1, “MITOCONDRIALLY-TARGETED TIMOQUINONES AND TOLUQUINONES” (MITOTECH SA, priority 2014, published 2016).
“Also recorded” adds a separate entry of the source.

Experiments:
[1] = system: electron transport chain (ETC) of mitochondria isolated from rat heart
rat liver mitochondria = assay: H2O2 formation by rat liver mitochondria (prooxidant effect, Amplex Red); assay type: biochemical; conditions: up to 15 um concentrations in the medium; FIG. 15
Protocol: Incubation medium contained 0.18 M mannitol, 0.07 M sucrose, 0.2 mM Tris-phosphate, 0.5 mM EGTA, pH 7.2, 20 mM Tris-succinate, 2 uM Amplex Red, 5 U horseradish Peroxidase, 6 mM aminotriazole (an inhibitor of catalase) and mitochondria corresponding to 0.25 mg protein. Excitation wavelength was of 563 nm, Emission wavelength was of 585 nm.

human fibroblasts = assay: Protection from peroxide-induced cell death; assay type: cell-based; conditions: for protection from H2O2-induced apoptosis: FIG. 22
Protocol: Its activity was compared to the one of the most efficient MTA-SkQR1. The experiment was performed according to Antonenko et al., (Biochem. (Mosc.) (2008) 73:1273-1287 and the results are shown in FIG. 11.
The experiment was performed according to Antonenko et al., (Biochem. (Mosc.) (2008) 73:1273-1287. (see FIG. 12).
These experiments were performed as described in Antonenko et al (2008).

[2] = system: Y. lipolytica mitochondria; assay: H2O2 formation by Y. lipolytica mitochondria (Amplex red); assay type: biochemical; conditions: for rate of H2O2 formation by Y. lipolytica mitochondria: certain concentrations, 0.1 mg mitochondrial protein, FIG. 13, 14
Protocol: The experiment was performed in the following conditions: incubation medium contained 0.6 M mannitol, 20 mM Tris-succinate,0.5 mM EGTA, 0.2 mM Tris-phosphate, pH 7.2, 2 uM Amplex red, horse radish peroxidase (5 U) and mitochondria corresponding to 0.1 mg protein. […] Measurements were made using absorption/emission 530/590 nm.

mitochondria [3] = conditions: mitochondria supplemented with certain concentrations of SkQT; FIG. 8
Text: Several compounds according to the invention were synthesized as described above and tested for biological activity as described in Antonenko et al., (Biochem. (Mosc.) (2008) 73:1273-1287).

[4] = system: multi-drug resistance (MDR) proteins in HeLa cells; assay: Accumulation of SkQ variants in HeLa cells / expulsion by MDR pumps (flow cytometry); assay type: cell-based, human; conditions: for order of decreasing MDR-affinity: correlation suggested by the example; for accumulation in HeLa cells after MDR inhibitor: 100 nM SkQs, Pluronic L61 30 ug/ml added 10 minutes before, FIG. 17
Protocol: In the following experiment we have evaluated MDR expulsion of a timoquinone based SkQRT. HeLa cells were treated with 100 nM SkQRT and the activity of multidrug resistance pumps was estimated by fluorescence measurement using a Beckman Coulter FC 500 flow cytometer. […] Cells were incubated with 100 nM SkQs. After 60 minute, the medium was changed to control medium without SkQs (indicated with vertical line). […] It must be noted that MDR pumps are usually activated in tumor cells (for example HeLa), but not in normal non-malignant cells (fibroblasts or 3T3 cells).

isolated mitochondria = assay: Antioxidant activity in isolated mitochondria damaged by the Fenton reaction; conditions: FIG. 20
Protocol: Antioxidant activity was measured in isolated mitochodnria subjected to oxidative damage by the Fenton reaction (method described in Antonenko et al 2008).

mitochondria [5] = assay: Hydrogen peroxide production by mitochondria in the presence of antimycin A; assay type: biochemical; conditions: FIG. 21
Text: In the next experiment we measured hydrogen peroxide production by mitochondria in the presence of antimycin A (as described in Skulachev et al 2010, Biochim Biophys Acta, 1797(6-7), 878-8).

energized mitochondria = assay: Reduction of SkQB by energized mitochondria; assay type: biochemical; conditions: FIG. 19
[6] = system: primary cultured human fibroblasts; assay: Accumulation in primary cultured human fibroblasts (non-tumor cells); assay type: cell-based; conditions: FIG. 18

Which results are given for “10-(2-methyl-1,4-benzoquinonyl-5)decyltriphenylphosphonium bromide [SkQT]”?
effect of myxothiasole on reduction of the quinone form ([1]; 1 uM myxothiasole added at 10 min point, FIG. 10): prevented further reduction; reduction by mitochondria ([1]; rat heart mitochondria 0.05 mg/ml, 5 mM succinate, 2 uM rotenone, 100 nM SkQT, FIG. 9): can be reduced by mitochondria; prooxidant effect: stimulation of H2O2 formation by rat liver mitochondria at high concentrations (rat liver mitochondria): did not stimulate H202 formation; prevention of peroxide-induced cell death (human fibroblasts; FIG. 11): very efficient; protection from H2O2-induced cell death by different dosages (human fibroblasts; FIG. 12): protection of human fibroblasts; protection from H2O2-induced apoptosis (human fibroblasts): good protection; rate of H2O2 formation by Y. lipolytica mitochondria [2]: dramatically decrease; window between lowest and highest no effect doses ([2]; compared with SkQ1, biological examples 5 and 6): much wider; hydrogen peroxide formation by mitochondria at optimal concentration ([2]; optimal concentration, biological examples 5 and 6): almost completely prevented hydrogen peroxide formation; protection of mitochondria from oxidative damage (malondialdehyde concentration) (mitochondria [3]): successfully protected mitochondria from oxidative damage

With `CC1=C(C)C(=O)C(CCCCCCCCCC[P+](c2ccccc2)(c2ccccc2)c2ccccc2)=CC1=O.[Br-]` [SkQ1, reference compound] as the molecule, how does the “prooxidant effect: stimulation of H2O2 formation by rat liver mitochondria at high concentrations” value (rat liver mitochondria) read?
Its value is “prooxidant effect”.

And the “protection from H2O2-induced apoptosis” value (human fibroblasts)?
The value was “good protection”.

And the “rate of H2O2 formation by Y. lipolytica mitochondria” value [2]?
Its value is “considerably lower”.

And the “order of decreasing MDR-affinity” value [4]?
The value was “SkQB>SkQT>SkQ1>SkQ3”.

With `CC1=C(C)C(=O)C(CCCCCCCCCC[P+](c2ccccc2)(c2ccccc2)c2ccccc2)=C(C)C1=O` [SkQ3] as the molecule, how does the “order of decreasing MDR-affinity” value [4] read?
The value was “SkQB>SkQT>SkQ1>SkQ3”.

Which results are given for `O=C1C=CC(=O)C(CCCCCCCCCC[P+](c2ccccc2)(c2ccccc2)c2ccccc2)=C1` [SkQB, 10-(1,4-benzoquinonyl-2)decyltriphenylphosphonium bromide]?
antioxidant activity (isolated mitochondria): very weak antioxidant activity; also recorded: lower compared to SkQ1; protection from H2O2-induced apoptosis (human fibroblasts): weak protection; hydrogen peroxide production (pro-oxidant activity) (mitochondria [5]): pronounced pro-oxidant activity; also recorded: to a greater extent than SkQ1; reduction by energized mitochondria (energized mitochondria): can be reduced by energized mitochondria in an antimycin-sensitive way; order of decreasing MDR-affinity [4]: SkQB>SkQT>SkQ1>SkQ3

Which results are given for `CC/N=c1/cc2oc3cc(NCC)c(C)cc3c(-c3ccccc3C(=O)OCCCCCCCCCCC3=CC(=O)C(C)=C(C)C3=O)c-2cc1C` [SkQR1, reference compound]?
accumulation in human fibroblasts, SkQR1 compared with SkQRT1 [6]: no significant difference; accumulation in HeLa cells after MDR inhibitor [4]: increased accumulation

For `CCN=c1cc2oc3cc(NCC)c(C)cc3c(-c3ccccc3C(=O)OCCCCCCCCCCC3=CC(=O)C(C)=CC3=O)c-2cc1C` [SkQRT1, 10-(2-methyl-1,4-benzoquinonyl-5)-decyl ester of rhodamine 19], which “accumulation in human fibroblasts, SkQR1 compared with SkQRT1” value [6] is on record?
The value was “no significant difference”.

What about the “accumulation in HeLa cells after MDR inhibitor” value [4] of the same molecule?
Its value is “increased accumulation”.
